Data: the supplement of paper PMC10307832

Experiments:
Test in all cases: relative viability (nuclei count vs DMSO), 5 days (fraction); higher = more cells survive
CAL-12T = system: CAL-12T
Method in brief: (§1)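 One day after seeding in 1536-well plates, lung cancer cell lines were dosed by pin tool. Dosing was either single-drug or a fixed anchor-drug dose plus five library-drug doses (not always all listed) in √10 steps. After 5 days, nuclei were stained in one fix-and-stain step and counted on 4× images, and relative viability is the nuclei count of treated wells over that of vehicle wells, given as the median of duplicate plates.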

Calu-6 = system: Calu-6
Method in brief: as §1

ChaGo-K-1 = system: ChaGo-K-1
Method in brief: as §1

EBC-1 = system: EBC-1
Method in brief: as §1

EMC-BAC-2 = system: EMC-BAC-2
Method in brief: as §1

HCC-366 = system: HCC-366
Method in brief: as §1

HCC-78 = system: HCC-78
Method in brief: as §1

HOP-62 = system: HOP-62
Method in brief: as §1

LC-2-ad = system: LC-2-ad
Method in brief: as §1

LK-2 = system: LK-2
Method in brief: as §1

NCI-H1355 = system: NCI-H1355
Method in brief: as §1

NCI-H1734 = system: NCI-H1734
Method in brief: as §1

NCI-H1993 = system: NCI-H1993
Method in brief: as §1

NCI-H2009 = system: NCI-H2009
Method in brief: as §1

NCI-H2085 = system: NCI-H2085
Method in brief: as §1

NCI-H2228 = system: NCI-H2228
Method in brief: as §1

NCI-H2347 = system: NCI-H2347
Method in brief: as §1

NCI-H2405 = system: NCI-H2405
Method in brief: as §1

NCI-H3122 = system: NCI-H3122
Method in brief: as §1

NCI-H596 = system: NCI-H596
Method in brief: as §1

PC-14 = system: PC-14
Method in brief: as §1

RERF-LC-KJ = system: RERF-LC-KJ
Method in brief: as §1

SK-MES-1 = system: SK-MES-1
Method in brief: as §1

SW 1573 = system: SW 1573
Method in brief: as §1

CCCCCCCCCCCC1=C(O)C(=O)C=C(O)C1=O [Embelin] + C[C@@H](Oc1cc(-c2cnn(C3CCNCC3)c2)cnc1N)c1c(Cl)ccc(F)c1Cl [Crizotinib] (partner 1 µM)
relative viability (CAL-12T; first compound 0.08 µM): 0.615
relative viability (CAL-12T; first compound 0.8 µM): 0.785
relative viability (CAL-12T; first compound 2.53 µM): 0.724
relative viability (CAL-12T; first compound 8 µM): 0.801
relative viability (Calu-6; first compound 0.08 µM): 0.738
relative viability (Calu-6; first compound 0.8 µM): 0.854
relative viability (Calu-6; first compound 2.53 µM): 0.822
relative viability (Calu-6; first compound 8 µM): 0.692
relative viability (ChaGo-K-1; first compound 0.08 µM): 1.13
relative viability (ChaGo-K-1; first compound 0.8 µM): 1.22
relative viability (ChaGo-K-1; first compound 2.53 µM): 1.32
relative viability (ChaGo-K-1; first compound 8 µM): 1.24
relative viability (EBC-1; first compound 0.08 µM): 0.205
relative viability (EBC-1; first compound 0.8 µM): 0.229
relative viability (EBC-1; first compound 2.53 µM): 0.191
relative viability (EBC-1; first compound 8 µM): 0.19
relative viability (EMC-BAC-2; first compound 0.08 µM): 0.747
relative viability (EMC-BAC-2; first compound 0.8 µM): 0.831
relative viability (EMC-BAC-2; first compound 2.53 µM): 0.87
relative viability (EMC-BAC-2; first compound 8 µM): 0.764
relative viability (HCC-366; first compound 0.08 µM): 0.633
relative viability (HCC-366; first compound 0.8 µM): 0.572
relative viability (HCC-366; first compound 2.53 µM): 1.02
relative viability (HCC-366; first compound 8 µM): 0.637
relative viability (HCC-78; first compound 0.08 µM): 0.344
relative viability (HCC-78; first compound 0.8 µM): 0.373
relative viability (HCC-78; first compound 2.53 µM): 0.347
relative viability (HCC-78; first compound 8 µM): 0.321
relative viability (HOP-62; first compound 0.08 µM): 0.957
relative viability (HOP-62; first compound 0.8 µM): 0.926
relative viability (HOP-62; first compound 2.53 µM): 0.857
relative viability (HOP-62; first compound 8 µM): 0.82
relative viability (LC-2-ad; first compound 0.08 µM): 0.451
relative viability (LC-2-ad; first compound 0.8 µM): 0.564
relative viability (LC-2-ad; first compound 2.53 µM): 0.472
relative viability (LC-2-ad; first compound 8 µM): 0.427
relative viability (LK-2; first compound 0.08 µM): 0.227
relative viability (LK-2; first compound 0.8 µM): 0.316
relative viability (LK-2; first compound 2.53 µM): 0.229
relative viability (LK-2; first compound 8 µM): 0.208
relative viability (NCI-H1355; first compound 0.08 µM): 1.08
relative viability (NCI-H1355; first compound 0.8 µM): 1.18
relative viability (NCI-H1355; first compound 2.53 µM): 1.17
relative viability (NCI-H1355; first compound 8 µM): 0.974
relative viability (NCI-H1734; first compound 0.08 µM): 0.71
relative viability (NCI-H1734; first compound 0.8 µM): 0.825
relative viability (NCI-H1734; first compound 2.53 µM): 0.693
relative viability (NCI-H1734; first compound 8 µM): 0.747
relative viability (NCI-H1993; first compound 0.08 µM): 1
relative viability (NCI-H1993; first compound 0.8 µM): 0.844
relative viability (NCI-H1993; first compound 2.53 µM): 0.943
relative viability (NCI-H1993; first compound 8 µM): 0.793
relative viability (NCI-H2009; first compound 0.08 µM): 1.04
relative viability (NCI-H2009; first compound 0.8 µM): 1.12
relative viability (NCI-H2009; first compound 2.53 µM): 1.11
relative viability (NCI-H2009; first compound 8 µM): 1.06
relative viability (NCI-H2085; first compound 0.08 µM): 0.666
relative viability (NCI-H2085; first compound 0.8 µM): 0.948
relative viability (NCI-H2085; first compound 2.53 µM): 0.925
relative viability (NCI-H2085; first compound 8 µM): 0.835
relative viability (NCI-H2228; first compound 0.08 µM): 0.437
relative viability (NCI-H2228; first compound 0.8 µM): 0.579
relative viability (NCI-H2228; first compound 2.53 µM): 0.431
relative viability (NCI-H2228; first compound 8 µM): 0.426
relative viability (NCI-H2347; first compound 0.08 µM): 0.784
relative viability (NCI-H2347; first compound 0.8 µM): 0.868
relative viability (NCI-H2347; first compound 2.53 µM): 0.778
relative viability (NCI-H2347; first compound 8 µM): 0.622
relative viability (NCI-H2405; first compound 0.08 µM): 0.908
relative viability (NCI-H2405; first compound 0.8 µM): 0.976
relative viability (NCI-H2405; first compound 2.53 µM): 0.892
relative viability (NCI-H2405; first compound 8 µM): 0.955
relative viability (NCI-H3122; first compound 0.08 µM): 0.296
relative viability (NCI-H3122; first compound 0.8 µM): 0.293
relative viability (NCI-H3122; first compound 2.53 µM): 0.273
relative viability (NCI-H3122; first compound 8 µM): 0.282
relative viability (NCI-H596; first compound 0.08 µM): 1.06
relative viability (NCI-H596; first compound 0.8 µM): 1.62
relative viability (NCI-H596; first compound 2.53 µM): 1.2
relative viability (NCI-H596; first compound 8 µM): 1.01
relative viability (PC-14; first compound 0.08 µM): 0.916
relative viability (PC-14; first compound 0.8 µM): 0.845
relative viability (PC-14; first compound 2.53 µM): 0.921
relative viability (PC-14; first compound 8 µM): 0.891
relative viability (RERF-LC-KJ; first compound 0.08 µM): 0.883
relative viability (RERF-LC-KJ; first compound 0.8 µM): 0.912
relative viability (RERF-LC-KJ; first compound 2.53 µM): 0.906
relative viability (RERF-LC-KJ; first compound 8 µM): 0.937
relative viability (SK-MES-1; first compound 0.08 µM): 1.01
relative viability (SK-MES-1; first compound 0.8 µM): 1.1
relative viability (SK-MES-1; first compound 2.53 µM): 0.952
relative viability (SK-MES-1; first compound 8 µM): 1.11
relative viability (SW 1573; first compound 0.08 µM): 0.808
relative viability (SW 1573; first compound 0.8 µM): 0.977
relative viability (SW 1573; first compound 2.53 µM): 0.84
relative viability (SW 1573; first compound 8 µM): 0.887
